From patent publication US6365753B1, “Phthalimides and herbicide containing the same as active component” (Mitsubishi Chemical Corporation, priority 1998, dated 2002)

Tests used:
Assay type in all cases: in vivo
Brassica juncea [1] = assay: Foliar treatment test (3) post emergence application; conditions: 3.0 to 4.0-leaf stage, 0.125% X-77, 21st day, index
Description: (§1) Volcanic ash soil from a field was put in a resin-made pot having an area of 200 cm^2. After fertilization, the seeds of Galim spurium, Brassica juncea, and wheat were cast on the soil and covered with the soil uniformly. Cultivation was continued in a greenhouse until the plants reached to the 3.0 to 4.0-leaf stage.
(§2) The emulsifiable concentrate comprising compound No. 5 of the present invention, comparative compound (B) or comparative compound (C) as an active ingredient which was prepared in accordance with Formulation Example 3 was diluted with water containing 0.125% of a spreading agent X-77 (trade name, Valent USA Co.) so that a spray of 250 L/ha might give a prescribed amount of the active ingredient. The diluted composition was uniformly sprayed to the Galium spurium plant, the Brassica juncea plant, and the wheat plant by means of a small-sized power pressure spray.
(§3) Thereafter, cultivation was continued in the greenhouse, and the herbicidal effect and the injury to the crop were examined on the 21st day from the treatment. The herbicidal effect and the injury to the crop were evaluated on the same criteria as in Test Example 4.

Galium spurium = assay: as above; conditions: 3.0 to 4.0-leaf stage, 0.125% X-77, 21st day, index
Description: as §1, §2, §3

wheat = assay: Foliar treatment test (3) post emergence application, crop injury; conditions: 3.0 to 4.0-leaf stage, 0.125% X-77, 21st day, index
Description: as §1, §2, §3

Alopeculus aequalis = assay: Foliar treatment test (1) post-emergence application; conditions: foliar treatment post-emergence at 1.0- to 2.0-leaf stage, 10 g/a active ingredient, 21st day from treatment; herbicidal index; note: ranges in brackets are in %
Description: (§4) Volcanic ash soil from a field was put in a resin-made pot having an area of 200 cm^2. After fertilization, the seeds of Brassica juncea, Ipomoea purpurea, Echinochloa crus-galli and Alopeculus aequalis were cast on the soil and uniformly covered with the soil.
(§5) Cultivation was continued in a greenhouse, and when the weeds reached the 1.0- to 2.0-leaf stage, a prescribed amount of the emulsifiable concentrate comprising the compound of the invention as an active ingredient which was prepared in Formulation Example 3 as diluted with water was sprayed uniformly to the weeds by means of a small-sized power pressure spray to give 10 g of the active ingredient per are.
(§6) Thereafter, cultivation was further continued in the greenhouse, and the herbicidal effect was examined on the 21st day from the treatment. The results obtained are shown in Table 6 (the compound numbers in Table 6 correspond to those in Tables 1 and 2). The herbicidal effect was evaluated based on the same criteria as in Test Example 1.

Brassica juncea [2] = assay: as above; conditions: foliar treatment post-emergence at 1.0- to 2.0-leaf stage, 10 g/a active ingredient, 21st day from treatment; herbicidal index
Description: as §4, §5, §6

Echinochloa crus-galli = assay: as above; conditions: foliar treatment post-emergence at 1.0- to 2.0-leaf stage, 10 g/a active ingredient, 21st day from treatment; herbicidal index; note: ranges in brackets are in %
Description: as §4, §5, §6

Ipomoea purpurea = assay: as above; conditions: foliar treatment post-emergence at 1.0- to 2.0-leaf stage, 10 g/a active ingredient, 21st day from treatment; herbicidal index; note: ranges in brackets are in %
Description: as §4, §5, §6

Row | Structure (SMILES) | Herbicidal Effect Brassica juncea (Brassica juncea [1]; 12.5 ga.i./ha) | Herbicidal Effect Brassica juncea (Brassica juncea [1]; 25.0 ga.i./ha) | Herbicidal Effect Brassica juncea (Brassica juncea [1]; 50.0 ga.i./ha) | Herbicidal Effect Galium spurium (Galium spurium; 12.5 ga.i./ha) | Herbicidal Effect Galium spurium (Galium spurium; 25.0 ga.i./ha) | Herbicidal Effect Galium spurium (Galium spurium; 50.0 ga.i./ha) | Crop Injury Wheat (wheat; 12.5 ga.i./ha) | Crop Injury Wheat (wheat; 25.0 ga.i./ha) | Crop Injury Wheat (wheat; 50.0 ga.i./ha) | Herbicidal Effect Alopeculus sequalis (Alopeculus aequalis) | Herbicidal Effect Brassica juncea (Brassica juncea [2]) | Herbicidal Effect Echinochloa crus-galli (Echinochloa crus-galli) | Herbicidal Effect Ipompoea-purpurea (Ipomoea purpurea)
1 | CCOC(=O)C(Cl)Cc1cc(-n2nc(C)n(C(F)F)c2=O)c(F)cc1Cl (centres unmarked) [Comparative Compound (C), Carfentrazone-ethyl] | 9 (90-99) | 10 (100) | 10 (100) | 10 (100) | 10 (100) | 10 (100) | 3 (20-29) | 4 (30-39) | 6 (60-69) |  |  |  | 
2 | CCO/N=C(/COc1cc(N2C(=O)c3ccccc3C2=O)c(F)cc1Cl)C(=O)OCC [Comparative Compound (B)] | 9 (90-99) | 10 (100) | 10 (100) | 9 (90-99) | 9 (90-99) | 10 (100) | 3 (20-29) | 3 (20-29) | 4 (30-39) |  |  |  | 
3 | COC(=O)C(Cl)Cc1cc(N2C(=O)c3ccccc3C2=O)ccc1Cl (centres unmarked) [Compound 1] |  |  |  |  |  |  |  |  |  | 1 (6-30) | 5 (91-100) | 1 (6-30) | 5 (91-100)
4 | COC(=O)C(Cl)Cc1cc(N2C(=O)c3ccc(F)cc3C2=O)ccc1Cl (centres unmarked) [Compound 2] |  |  |  |  |  |  |  |  |  | 1 (6-30) | 5 (91-100) | 2 (31-50) | 5 (91-100)
5 | CCOC(=O)/C=C/c1cc(N2C(=O)c3ccccc3C2=O)c(F)cc1Cl [Compound 17, Ethyl 3-(2-Chloro-4-fluoro-5-phthalimidophenyl)acrylate] |  |  |  |  |  |  |  |  |  | 1 (6-30) | 5 (91-100) | 1 (6-30) | 5 (91-100)
6 | CCCNC(=O)C(Cl)Cc1cc(N2C(=O)c3ccccc3C2=O)c(F)cc1Cl (centres unmarked) [Compound 10, 2-Chloro-3-(2-chloro-4-fluoro-5-phthalimidophenyl)-N-propylpropionamide] |  |  |  |  |  |  |  |  |  | 3 (51-70) | 5 (91-100) | 4 (71-90) | 5 (91-100)
7 | COC(=O)C=Cc1cc(N2C(=O)c3ccccc3C2=O)c(F)cc1Cl [Compound 16] |  |  |  |  |  |  |  |  |  | 1 (6-30) | 5 (91-100) | 3 (51-70) | 5 (91-100)
